Data reported in ChEMBL document CHEMBL4507260 (2021).

Columns and labels:
Conditions in all cases: Compound concentration 1000.0 nM
[1] = molecular target: NUAK family SNF1-like kinase 1 (Homo sapiens) (UniProt O60285)
[2] = molecular target: Mitogen-activated protein kinase kinase kinase 5 (Homo sapiens) (UniProt Q99683)
[3] = molecular target: Mitogen-activated protein kinase kinase kinase 6 (Homo sapiens) (UniProt O95382)
[4] = molecular target: Aurora kinase A (Homo sapiens) (UniProt O14965)
[5] = molecular target: Calcium/calmodulin-dependent protein kinase type 1 (Homo sapiens) (UniProt Q14012)
[6] = molecular target: Calcium/calmodulin-dependent protein kinase type II subunit beta (Homo sapiens) (UniProt Q13554)
[7] = molecular target: Cyclin-dependent kinase 11B (Homo sapiens) (UniProt P21127)
[8] = molecular target: Cyclin-dependent kinase 13 (Homo sapiens) (UniProt Q14004)
[9] = molecular target: Tyrosine-protein kinase CSK (Homo sapiens) (UniProt P41240)
[10] = molecular target: Death-associated protein kinase 3 (Homo sapiens) (UniProt O43293)
[11] = molecular target: Serine/threonine-protein kinase 17A (Homo sapiens) (UniProt Q9UEE5)
[12] = tested on: Epidermal growth factor receptor (Homo sapiens), P00533 [UNDEFINED MUTATION]
[13] = molecular target: Ephrin type-A receptor 1 (Homo sapiens) (UniProt P21709)
[14] = molecular target: Mitogen-activated protein kinase 4 (Homo sapiens) (UniProt P31152)
Chain of Mitogen-activated protein kinase 4 (Homo sapiens) (P31152 whole entry): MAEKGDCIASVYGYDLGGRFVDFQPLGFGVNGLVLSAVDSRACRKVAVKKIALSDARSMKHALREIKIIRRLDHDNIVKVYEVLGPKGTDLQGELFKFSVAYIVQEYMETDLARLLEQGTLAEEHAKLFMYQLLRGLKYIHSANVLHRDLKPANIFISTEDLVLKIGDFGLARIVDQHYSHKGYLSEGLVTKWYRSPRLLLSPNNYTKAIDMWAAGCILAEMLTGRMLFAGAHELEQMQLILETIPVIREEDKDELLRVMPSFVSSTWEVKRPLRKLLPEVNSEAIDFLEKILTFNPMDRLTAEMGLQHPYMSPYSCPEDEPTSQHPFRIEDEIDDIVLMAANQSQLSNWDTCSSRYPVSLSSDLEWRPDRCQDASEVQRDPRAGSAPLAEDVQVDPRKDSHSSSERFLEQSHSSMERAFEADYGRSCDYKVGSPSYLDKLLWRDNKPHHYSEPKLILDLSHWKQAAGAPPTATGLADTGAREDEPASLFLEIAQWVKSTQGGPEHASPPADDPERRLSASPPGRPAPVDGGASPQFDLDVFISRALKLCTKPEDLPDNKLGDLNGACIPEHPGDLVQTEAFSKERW

[15] = molecular target: Mitogen-activated protein kinase 7 (Homo sapiens) (UniProt Q13164)
Chain of Mitogen-activated protein kinase 7 (Homo sapiens) (Q13164 2-816 limits assumed): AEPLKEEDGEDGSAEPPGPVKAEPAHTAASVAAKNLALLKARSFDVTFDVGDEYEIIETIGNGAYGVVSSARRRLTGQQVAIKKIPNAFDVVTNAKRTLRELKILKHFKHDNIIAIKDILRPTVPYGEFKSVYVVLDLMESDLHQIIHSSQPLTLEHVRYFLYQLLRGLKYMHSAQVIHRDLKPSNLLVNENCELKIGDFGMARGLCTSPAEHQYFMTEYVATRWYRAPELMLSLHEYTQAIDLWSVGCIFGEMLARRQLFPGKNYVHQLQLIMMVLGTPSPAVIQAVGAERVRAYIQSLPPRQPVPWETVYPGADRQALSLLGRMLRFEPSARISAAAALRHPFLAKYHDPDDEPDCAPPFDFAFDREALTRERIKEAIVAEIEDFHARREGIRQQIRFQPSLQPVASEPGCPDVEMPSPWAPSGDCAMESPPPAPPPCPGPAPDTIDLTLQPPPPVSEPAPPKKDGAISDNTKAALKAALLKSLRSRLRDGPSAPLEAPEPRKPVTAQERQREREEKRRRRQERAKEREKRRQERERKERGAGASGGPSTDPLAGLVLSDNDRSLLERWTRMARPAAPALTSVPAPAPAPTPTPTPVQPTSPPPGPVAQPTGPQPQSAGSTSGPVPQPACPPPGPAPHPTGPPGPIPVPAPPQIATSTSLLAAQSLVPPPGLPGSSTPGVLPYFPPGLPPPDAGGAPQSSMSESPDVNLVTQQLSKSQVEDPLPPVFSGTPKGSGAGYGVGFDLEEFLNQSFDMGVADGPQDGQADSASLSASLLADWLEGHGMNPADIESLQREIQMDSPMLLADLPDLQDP

[16] = tested on: Receptor-type tyrosine-protein kinase FLT3 (Homo sapiens), P36888 [UNDEFINED MUTATION]
[17] = tested on: Receptor-type tyrosine-protein kinase FLT3 (Homo sapiens), P36888 [K663Q]
[18] = molecular target: G protein-coupled receptor kinase 3 (Homo sapiens) (UniProt P35626)
[19] = molecular target: Tyrosine-protein kinase HCK (Homo sapiens) (UniProt P08631)
Chain of Tyrosine-protein kinase HCK (Homo sapiens) (P08631 2-526 limits assumed): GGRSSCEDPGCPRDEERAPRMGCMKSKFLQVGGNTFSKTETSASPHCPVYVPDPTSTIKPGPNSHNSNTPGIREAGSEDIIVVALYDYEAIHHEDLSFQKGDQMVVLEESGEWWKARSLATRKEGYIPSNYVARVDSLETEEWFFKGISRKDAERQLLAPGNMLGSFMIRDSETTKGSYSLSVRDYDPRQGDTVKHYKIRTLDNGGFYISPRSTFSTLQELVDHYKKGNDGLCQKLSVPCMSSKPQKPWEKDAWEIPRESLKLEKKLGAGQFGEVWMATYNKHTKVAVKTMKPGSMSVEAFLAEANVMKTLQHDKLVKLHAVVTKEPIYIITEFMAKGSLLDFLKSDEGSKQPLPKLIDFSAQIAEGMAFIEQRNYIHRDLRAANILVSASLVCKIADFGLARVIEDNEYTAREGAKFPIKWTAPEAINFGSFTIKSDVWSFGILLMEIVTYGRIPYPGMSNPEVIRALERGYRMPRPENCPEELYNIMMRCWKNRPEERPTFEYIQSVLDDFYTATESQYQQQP

[20] = molecular target: Interleukin-1 receptor-associated kinase 1 (Homo sapiens) (UniProt P51617)
[21] = tested on: Mast/stem cell growth factor receptor Kit (Homo sapiens), P10721 [A829P]
[22] = molecular target: Tyrosine-protein kinase Lck (Homo sapiens) (UniProt P06239)
[23] = molecular target: Serine/threonine-protein kinase STK11 (Homo sapiens) (UniProt Q15831)
[24] = tested on: Leucine-rich repeat serine/threonine-protein kinase 2 (Homo sapiens), Q5S007 [G2019S]
[25] = molecular target: Mitogen-activated protein kinase kinase kinase 13 (Homo sapiens) (UniProt O43283)
Chain of Mitogen-activated protein kinase kinase kinase 13 (Homo sapiens) (O43283 whole entry): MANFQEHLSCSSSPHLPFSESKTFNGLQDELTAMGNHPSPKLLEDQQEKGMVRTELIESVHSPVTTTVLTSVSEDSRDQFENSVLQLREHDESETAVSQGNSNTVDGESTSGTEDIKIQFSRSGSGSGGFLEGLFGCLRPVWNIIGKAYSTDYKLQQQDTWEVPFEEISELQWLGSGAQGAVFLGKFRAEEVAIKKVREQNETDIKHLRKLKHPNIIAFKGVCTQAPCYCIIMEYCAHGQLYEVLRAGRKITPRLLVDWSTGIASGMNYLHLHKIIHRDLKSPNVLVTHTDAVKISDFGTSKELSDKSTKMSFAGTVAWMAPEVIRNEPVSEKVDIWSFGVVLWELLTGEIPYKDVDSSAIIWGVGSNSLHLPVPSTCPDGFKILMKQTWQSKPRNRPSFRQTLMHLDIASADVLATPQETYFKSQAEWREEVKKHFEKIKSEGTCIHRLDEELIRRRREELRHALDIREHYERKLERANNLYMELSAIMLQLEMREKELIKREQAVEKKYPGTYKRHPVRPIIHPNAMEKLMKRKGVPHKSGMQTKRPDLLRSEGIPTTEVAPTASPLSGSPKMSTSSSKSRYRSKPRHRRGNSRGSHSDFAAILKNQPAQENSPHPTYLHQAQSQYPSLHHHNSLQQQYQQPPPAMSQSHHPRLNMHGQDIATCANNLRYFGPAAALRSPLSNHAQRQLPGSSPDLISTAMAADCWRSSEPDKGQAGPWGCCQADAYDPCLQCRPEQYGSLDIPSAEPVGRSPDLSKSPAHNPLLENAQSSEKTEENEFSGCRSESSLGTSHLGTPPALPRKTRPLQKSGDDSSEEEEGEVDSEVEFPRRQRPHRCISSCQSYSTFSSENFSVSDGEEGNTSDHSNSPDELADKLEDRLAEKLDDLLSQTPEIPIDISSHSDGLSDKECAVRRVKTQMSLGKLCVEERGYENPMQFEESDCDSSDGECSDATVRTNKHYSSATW

[26] = molecular target: Mitogen-activated protein kinase kinase kinase kinase 4 (Homo sapiens) (UniProt O95819)
[27] = molecular target: Mitogen-activated protein kinase kinase kinase kinase 5 (Homo sapiens) (UniProt Q9Y4K4)
[28] = molecular target: Dual specificity mitogen-activated protein kinase kinase 4 (Homo sapiens) (UniProt P45985)
[29] = molecular target: Maternal embryonic leucine zipper kinase (Homo sapiens) (UniProt Q14680)
[30] = molecular target: MAP kinase-interacting serine/threonine-protein kinase 1 (Homo sapiens) (UniProt Q9BUB5)
[31] = molecular target: MAP kinase-interacting serine/threonine-protein kinase 2 (Homo sapiens) (UniProt Q9HBH9)
[32] = molecular target: Myosin light chain kinase (Homo sapiens) (UniProt Q32MK0)
Chain of Myosin light chain kinase (Homo sapiens) (Q32MK0 whole entry): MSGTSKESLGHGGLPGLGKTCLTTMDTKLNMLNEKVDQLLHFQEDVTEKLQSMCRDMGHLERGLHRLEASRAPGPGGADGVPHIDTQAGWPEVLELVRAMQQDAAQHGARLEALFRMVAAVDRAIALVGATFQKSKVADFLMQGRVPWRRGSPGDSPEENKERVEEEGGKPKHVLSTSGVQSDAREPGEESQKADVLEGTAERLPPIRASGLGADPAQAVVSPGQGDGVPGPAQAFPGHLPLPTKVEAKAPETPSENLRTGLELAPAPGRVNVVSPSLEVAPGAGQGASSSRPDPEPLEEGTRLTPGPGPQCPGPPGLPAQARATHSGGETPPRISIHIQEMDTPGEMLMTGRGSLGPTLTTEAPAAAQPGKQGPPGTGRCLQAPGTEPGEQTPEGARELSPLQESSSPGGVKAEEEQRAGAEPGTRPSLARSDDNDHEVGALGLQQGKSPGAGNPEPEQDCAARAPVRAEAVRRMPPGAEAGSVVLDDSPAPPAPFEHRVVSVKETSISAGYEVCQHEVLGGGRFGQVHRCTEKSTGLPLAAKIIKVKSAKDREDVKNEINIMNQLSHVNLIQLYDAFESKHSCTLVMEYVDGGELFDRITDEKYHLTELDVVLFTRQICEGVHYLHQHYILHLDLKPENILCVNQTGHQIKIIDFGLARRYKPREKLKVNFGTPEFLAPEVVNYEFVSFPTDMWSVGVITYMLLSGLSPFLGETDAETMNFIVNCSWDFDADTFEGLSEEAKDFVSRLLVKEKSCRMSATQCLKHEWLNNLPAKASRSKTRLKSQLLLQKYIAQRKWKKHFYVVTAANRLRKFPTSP

[33] = molecular target: Serine/threonine-protein kinase Nek1 (Homo sapiens) (UniProt Q96PY6)
[34] = molecular target: Calcium-dependent protein kinase 1 (Plasmodium falciparum) (UniProt P62344)
Chain of Calcium-dependent protein kinase 1 (Plasmodium falciparum) (P62344 2-524 limits assumed): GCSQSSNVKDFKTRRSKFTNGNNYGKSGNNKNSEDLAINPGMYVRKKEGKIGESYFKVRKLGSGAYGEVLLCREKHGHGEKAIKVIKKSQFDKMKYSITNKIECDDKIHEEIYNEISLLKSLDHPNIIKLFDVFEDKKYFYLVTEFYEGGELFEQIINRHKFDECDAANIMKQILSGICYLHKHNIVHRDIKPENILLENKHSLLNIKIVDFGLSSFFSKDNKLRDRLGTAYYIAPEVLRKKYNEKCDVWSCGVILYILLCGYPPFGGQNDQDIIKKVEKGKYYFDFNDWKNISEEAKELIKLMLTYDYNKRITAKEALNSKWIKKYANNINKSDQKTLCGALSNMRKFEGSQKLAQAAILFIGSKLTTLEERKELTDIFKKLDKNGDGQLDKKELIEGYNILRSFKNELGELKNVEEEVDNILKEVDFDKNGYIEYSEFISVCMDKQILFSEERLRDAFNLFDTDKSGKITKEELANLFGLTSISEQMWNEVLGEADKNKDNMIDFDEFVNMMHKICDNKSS

[35] = molecular target: Phosphatidylinositol 4-phosphate 5-kinase type-1 gamma (Homo sapiens) (UniProt O60331)
[36] = molecular target: Serine/threonine-protein kinase PLK3 (Homo sapiens) (UniProt Q9H4B4)
[37] = molecular target: Protein kinase C theta type (Homo sapiens) (UniProt Q04759)
[38] = molecular target: Serine/threonine-protein kinase RIO1 (Homo sapiens) (UniProt Q9BRS2)
[39] = molecular target: Proto-oncogene tyrosine-protein kinase ROS (Homo sapiens) (UniProt P08922)
[40] = molecular target: Ribosomal protein S6 kinase alpha-6 (Homo sapiens) (UniProt Q9UK32)
Chain of Ribosomal protein S6 kinase alpha-6 (Homo sapiens) (Q9UK32 whole entry): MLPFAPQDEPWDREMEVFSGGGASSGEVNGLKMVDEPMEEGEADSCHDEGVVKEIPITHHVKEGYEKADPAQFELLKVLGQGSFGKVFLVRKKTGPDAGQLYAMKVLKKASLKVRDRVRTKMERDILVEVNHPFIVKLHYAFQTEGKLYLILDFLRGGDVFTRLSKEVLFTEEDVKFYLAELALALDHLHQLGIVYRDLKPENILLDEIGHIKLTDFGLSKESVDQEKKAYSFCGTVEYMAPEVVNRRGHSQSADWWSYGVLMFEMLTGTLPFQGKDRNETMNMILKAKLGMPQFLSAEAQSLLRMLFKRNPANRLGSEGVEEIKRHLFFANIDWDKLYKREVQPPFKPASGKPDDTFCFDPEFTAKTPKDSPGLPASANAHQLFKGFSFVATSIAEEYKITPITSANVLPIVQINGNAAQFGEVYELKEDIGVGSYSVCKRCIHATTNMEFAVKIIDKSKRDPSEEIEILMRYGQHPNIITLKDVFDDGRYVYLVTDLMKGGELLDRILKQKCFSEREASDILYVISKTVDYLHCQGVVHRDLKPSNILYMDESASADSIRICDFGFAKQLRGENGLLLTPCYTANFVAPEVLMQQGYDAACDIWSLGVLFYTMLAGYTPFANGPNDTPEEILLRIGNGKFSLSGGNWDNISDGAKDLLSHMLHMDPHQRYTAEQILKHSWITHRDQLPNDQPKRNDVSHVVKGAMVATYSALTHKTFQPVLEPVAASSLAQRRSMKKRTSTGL

[41] = molecular target: Uncharacterized serine/threonine-protein kinase SBK3 (Homo sapiens) (UniProt P0C264)
[42] = molecular target: SRSF protein kinase 3 (Homo sapiens) (UniProt Q9UPE1)
[43] = molecular target: Tyrosine-protein kinase SYK (Homo sapiens) (UniProt P43405)
[44] = molecular target: Transient receptor potential cation channel subfamily M member 6 (Homo sapiens) (UniProt Q9BX84)
[45] = molecular target: Serine/threonine-protein kinase 25 (Homo sapiens) (UniProt O00506)

c1ccc(N2CCN(Cc3nc4ccccc4[nH]3)CC2)nc1 [ABT-724]
residual activity [1]: 89% | residual activity [2]: 93% | residual activity [3]: 98% | residual activity [4]: 89% | residual activity [5]: 100% | residual activity [6]: 100% | residual activity [7]: 100% | residual activity [8]: 100% | residual activity [9]: 100% | residual activity [10]: 91% | residual activity [11]: 100% | residual activity [12]: 100% | residual activity [13]: 100% | residual activity [14]: 100% | residual activity [15]: 100% | residual activity [16]: 100% | residual activity [17]: 100% | residual activity [18]: 67% | residual activity [19]: 100% | residual activity [20]: 100% | residual activity [21]: 100% | residual activity [22]: 100% | residual activity [23]: 70% | residual activity [24]: 100% | residual activity [25]: 86% | residual activity [26]: 100% | residual activity [27]: 100% | residual activity [28]: 100% | residual activity [29]: 100% | residual activity [30]: 91% | residual activity [31]: 100% | residual activity [32]: 100% | residual activity [33]: 100% | residual activity [34]: 99% | residual activity [35]: 93% | residual activity [36]: 100% | residual activity [37]: 98% | residual activity [38]: 86% | residual activity [39]: 100% | residual activity [40]: 100% | residual activity [41]: 100% | residual activity [42]: 100% | residual activity [43]: 100% | residual activity [44]: 100% | residual activity [45]: 94%

CSc1cccnc1N1CCN(Cc2nc3ccccc3[nH]2)CC1 [A-769]
residual activity [1]: 100% | residual activity [2]: 98% | residual activity [3]: 92% | residual activity [4]: 74% | residual activity [5]: 100% | residual activity [6]: 100% | residual activity [7]: 100% | residual activity [8]: 85% | residual activity [9]: 100% | residual activity [10]: 100% | residual activity [11]: 98% | residual activity [12]: 100% | residual activity [13]: 100% | residual activity [14]: 100% | residual activity [15]: 100% | residual activity [16]: 100% | residual activity [17]: 93% | residual activity [18]: 31% | residual activity [19]: 82% | residual activity [20]: 73% | residual activity [21]: 100% | residual activity [22]: 100% | residual activity [23]: 100% | residual activity [24]: 92% | residual activity [25]: 82% | residual activity [26]: 95% | residual activity [27]: 100% | residual activity [28]: 89% | residual activity [29]: 46% | residual activity [30]: 98% | residual activity [31]: 75% | residual activity [32]: 100% | residual activity [33]: 100% | residual activity [34]: 89% | residual activity [35]: 100% | residual activity [36]: 80% | residual activity [37]: 100% | residual activity [38]: 100% | residual activity [39]: 100% | residual activity [40]: 94% | residual activity [41]: 100% | residual activity [42]: 100% | residual activity [43]: 100% | residual activity [44]: 100% | residual activity [45]: 100%
